Measured values published in patent publication US11958915B2, “Methods for treatment and diagnosis of non-alcoholic steatohepatitis and/or hepatocellular carcinoma” (Marshall University Research Corporation, priority 2020, dated 2024).

Tests used:
[1] = system: two human HCC cell lines (HEP3B and SNU475); experiment: MTT cell proliferation assay, two human HCC cell lines; assay type: cell-based; conditions: PI3K/Akt pathway inhibitors on two human HCC cell lines
Protocol: (§1) In-vitro studies: cell lines and cell culture. Human HCC cell lines (HEP3B and SNU475 from ATCC, Cambridge, Mass.) were checked regularly for Mycoplasma contamination using RT-PCR kit while growing in culture with high glucose DMEM media supplemented with 10% FBS and 1% Penicillin/Streptomycin (HEP3), or with RPMI 1640 media supplemented with 10% heat inactivated FBS and 1% Penicillin/Streptomycin (SNU475) in 37° C. humidified incubator in presence of CO2 at 5%.
MTT Cell proliferation assay was performed by plating 5000 cells/well in 6 wells (per condition) of 96 well plates and allowed to adhere for 24 hours, when media was replaced with media±treatment agent for another 24 hours to finally assess cell proliferation according to the manufacturer's instructions (MTT assay, from #ATCC® 30-1010K, Cambridge, Mass.). Digoxin was dissolved in serum free media before addition to cells at designated concentrations.

[2] = system: two human HCC cell lines (HEP3B and SNU475); experiment: Protein expression by western blotting/confocal microscopy, two human HCC cell lines; assay type: cell-based; conditions: two Human HCC cells exposed to digoxin
Protocol: as §1
Confocal microscopy assessment on Immuno-stained cells/liver tissue. For in vitro studies, immunocytochemistry was performed on both human HCC cell lines as previously described. Briefly, the treated for 4 hours cells and the untreated cells were plated on glass coverslips and allowed to reach 70% confluency. […] Next day, slides were incubated with secondary antibodies (Alexa Fluor 488 or 549) and mounted with Vectashield mounting media on slides containing DAPI (Vector Laboratories, Inc., H-1800).
Western Blotting. […] Blocked membranes were incubated with the specific primary/secondary antibodies for protein signals to be detected by the Pierce ECL kit (Thermo Fisher Scientific, Waltham, Mass.), and quantified using ImageJ software.

Structure (SMILES) | cell proliferation (MTT assay) [1] | expression of survivin [2]
CC(C)(C)n1nc(-c2ccc(Cl)cc2)c2c(N)ncnc21 [PP2] | inhibited cell proliferation | –
C[C@H]1O[C@@H](O[C@H]2[C@@H](O)C[C@H](O[C@H]3[C@@H](O)C[C@H](O[C@H]4CC[C@@]5(C)[C@H](CC[C@@H]6[C@@H]5C[C@@H](O)[C@]5(C)[C@@H](C7=CC(=O)OC7)CC[C@]65O)C4)O[C@@H]3C)O[C@@H]2C)C[C@H](O)[C@@H]1O [digoxin] | – | increased the expression of survivin
N#C/C(=C/c1ccc(O)c(O)c1)C(=O)NCc1ccccc1 [AG490] | inhibited cell proliferation | –
